Publication PMC10361251, “Absorption, tissue distribution, and excretion of glycycoumarin, a major bioactive coumarin from Chinese licorice (Glycyrrhiza uralensis Fisch)” (Frontiers in Pharmacology, 2023)
Like-named read-outs stand apart in the source and are kept apart here. Each block holds one molecule with its values, some of them ahead of it.

Legend:
CYP1A1 = test system: CYP1A1; set-up: method as in Kim et al., 2016; details: human liver microsomes; ref Kim et al., 2016; cited from earlier work
CYP2C9 = details: human liver microsomes, cited from earlier work
[1] = set-up: method as in Wang et al., 2015; details: ref Wang et al., 2015; cited from earlier work
CYP2D6 = test system: CYP2D6; set-up: method as in Qiao et al., 2014a; details: ref Qiao et al., 2014a; cited from earlier work
[2] = Tissue distribution of GCM after intraperitoneal administration; assay type: in vivo; details: intraperitoneal 20 mg/kg, rats
Method: Twenty-five rats were randomly divided into five groups and administered 20 mg/kg GCM intraperitoneally. Samples of various tissues (heart, liver, spleen, lung, kidney, and brain) of a certain weight were collected from the rats at 0.5, 1, 2, 4, and 6 h following GCM administration. All tissues were then rinsed with normal saline to clean the blood, blotted with filter paper, and stored at −40°C until use. Blood samples were collected via the carotid artery at the specified time points, and plasma samples were harvested as described above.
Tissue samples were accurately weighed and homogenized in ice-cold saline (1:4, w/v) using a glass tissue homogenizer. Homogenized organs were centrifuged at 12,000 × g for 10 min to obtain clear supernatants; the supernatant was then transferred to a clean test tube kept at −40°C until assayed.
(§1) An LC-MS/MS system comprising an Agilent 1260 HPLC system (Palo Alto, CA, United States) and an Applied Biosystems 4500 Q-Trap mass spectrometer equipped with an electrospray ionization source (Foster City, CA, United States) was used. Chromatographic separation was performed on a C18 column (100 × 4.6 mm, 3 μm, Thermo Fisher Scientific, Waltham, MA, United States) maintained at 30°C. The mobile phases comprised 0.1% (v/v) formic acid in water (A) and acetonitrile (B) at a flow rate of 0.4 mL/min. […] The total run time was 4 min. For mass spectrometry detection, the positive ion mode was used and the ion spray voltage was set at 5,500 V. The operating conditions were as follows: ion source temperature, 450°C; curtain gas, 20 psi; collision gas, medium. Ion source gases 1 and 2 were both at 60 psi. The collision energies were 37 and 42 V, and the declustering potentials for GCM and IS were 110 and 136 V, respectively. Quantification was performed by multiple reaction monitoring (MRM) of molecular ions and product ions at m/z 369.3 and 284.7 for GCM and 337.0 and 280.9 for IS (Supplementary Figure S1). Analyst® software (Version 1.6.3) was used for data acquisition and peak integration.

[3] = Urinary excretion of free and total GCM after i.v. administration; assay type: in vivo, rats; details: Sprague-Dawley, rat, urine, iv, 10 mg/kg, free GCM, i.v. 10 mg/kg
Method: Six rats were individually placed in metabolic cages and administered 10 mg/kg GCM by i. v. injection. Urine samples were collected over 24 h after administration in a urine reservoir containing 2 mL 0.1% HCl to avoid GCM degradation. Each urine reservoir was rinsed with 5 mL normal saline after collection. Every urine sample was diluted to 20 mL with normal saline and then stored at −40°C until assayed.
(§2) Two aliquots of 50 μL prepared bile or urine samples were spiked with or without β-glucuronidase to determine the total or free GCM concentrations, as described above. The mixtures were incubated at 37°C for 40 min, and the mixtures were then spiked with 120 μL of ice-cold methanol containing IS to stop incubation. A 10 μL supernatant of each sample was used for the analysis.
as §1

CYP2C8 = test system: CYP2C8; set-up: method as in Li et al., 2017; Kuang et al., 2021; details: human liver microsomes; ref Li et al., 2017; Kuang et al., 2021; cited from earlier work
[4] = set-up: method as in Li et al., 2017; Kuang et al., 2021; details: human liver microsomes; ref Li et al., 2017; Kuang et al., 2021; cited from earlier work
[5] = Biliary excretion of free and total GCM after i.v. administration; assay type: in vivo, rats; details: free GCM, i.v. 10 mg/kg; for dose excreted: Sprague-Dawley, rat, bile, iv, 10 mg/kg, read-out: Bile recovery
Method: Rats (n = 6) underwent bile fistula cannulation under anesthesia prior to bile sample collection. Bile samples from rats following i. v. GCM administration (10 mg/kg) were collected via cannula every 2 h over an 8 h collection period. Samples were collected from the catheter and delivered into acidified (0.1% HCl) centrifuge tubes. The rats were placed on thermostatic plates and kept under mild anesthesia throughout the experiment. The bile samples were diluted with saline and stored at −40°C until assayed.
as §2, §1

CYP1A2 = test system: CYP1A2; set-up: method as in Li et al., 2017; Kuang et al., 2021; details: human liver microsomes; ref Li et al., 2017; Kuang et al., 2021; cited from earlier work
[6] = Plasma pharmacokinetics of free and total GCM after i.v. or oral administration (LC-MS/MS, with or without β-glucuronidase hydrolysis); assay type: in vivo, Sprague-Dawley rats
Description: Male Sprague-Dawley rats (200 ± 20 g) were obtained from SJA Laboratory Animal Co. Ltd. (Hunan, China). All animals were kept under standard conditions of light, humidity, and temperature, and were allowed free access to a standard diet and water. All animal experiments were approved by the Animal Ethics Committee of Bijie City First People’s Hospital (BY[2019]-02-198). On the day before GCM administration, rats were subjected to a minor surgical procedure. Briefly, a polyurethane catheter (0.59 mm ID, 0.94 mm OD; Skillsmodel Limited, Beijing, China) was cannulated into the right jugular vein while under anesthesia induced using an intraperitoneal dose of chloral hydrate at 350 mg/kg. After surgery, the rats were individually placed in metabolism cages to allow recovery for at least 24 h. The rats were fasted overnight with free access to water before GCM administration.
All GCM dosing drugs were freshly prepared at a concentration of 10 mg/mL prior to the experiments. Briefly, GCM was dissolved in normal saline containing 5% (v/v) Solutol HS 15. The animals were randomly divided into three groups. The i. v. administration group was treated intravenously with […] by quick injection through the cannulated catheter, and approximately 0.2 mL saline with 20 units of heparin was injected to flush the catheter and prevent blood coagulation. The oral administration group was treated with […] in a single gastric gavage dose, and the intraperitoneal injection group received 20 mg/kg GCM through intraperitoneal injection.
Approximately 0.3 mL blood samples were collected via the cannula and placed into heparinized micro centrifuge (Eppendorf) tubes at multiple time-points (0.08, 0.25, 0.50, 1, 2, 3, 4, 5, 6, 7, 8, 10, 12, and 24 h) after GCM administration. The samples were centrifuged at 3000 × g for 5 min at 4°C for plasma separation; a 0.1 mL aliquot of each separated plasma sample was harvested and stored at −40°C until assessed.
Free (parent drug) and/or total (including parent and glucuronidated metabolites) GCM concentrations in rat plasma, tissues, urine, and bile were quantitatively assayed using LC-MS/MS before and after hydrolytic treatment with β-glucuronidase.
Aliquots (100 μL) of plasma samples were divided into two equal fractions for determining the free and total GCM concentrations, as previously described ([Chang et al., 2012]). Briefly, two aliquots of 50 μL plasma were incubated at 37°C with or without β-glucuronidase at a concentration of 1,200 units for total and free GCM, respectively. After 40 min of incubation, 10 μL of IS (1,000 ng/mL) was added to the mixtures followed by extraction with ethyl acetate. After centrifugation, the clear ethyl acetate layer was transferred and concentrated using a freeze-dry concentration method at 4°C. Subsequently, the remaining material was reconstituted in 200 μL of 90% (v/v) methanol. A 10 μL aliquot of the supernatant was injected into the LC-MS/MS system for analysis.
as §1, with “Quantification was performed by multiple reaction monitoring (MRM) of molecular ions and product ions at m/z 369.3 and 284.7 for GCM and 337.0 and 280.9 for IS (Supplementary Figure S1). Analyst® software (Version 1.6.3) was used for data acquisition and peak integration.” left out

CYP2C19 = test system: CYP2C19; set-up: method as in Li et al., 2017; Kuang et al., 2021; details: human liver microsomes; ref Li et al., 2017; Kuang et al., 2021; cited from earlier work
[7] = In vitro stability of GCM in pH buffers and gastrointestinal content solutions; assay type: in vitro ADME, rats; details: 4 h at 37°C, 0.8 μg/mL
Method: The gastrointestinal tract solutions were collected as described previously ([Kong et al., 2013]). Briefly, rats were fasted overnight and sacrificed; the entire stomach, small intestine, and colon of each rat were removed, and their contents were rapidly collected on ice. Each of the contents was suspended in buffer solutions at pH 1.2, 6.8, and 7.4. Following mixing and centrifugation, the protein content of the gastrointestinal tract solutions was assayed using the BCA protein assay kit from Solarbio (Beijing, China) and then adjusted to 12 mg/mL for further study.
The stability of GCM in the gastrointestinal tract, including chemical stability and enzymatic stability, was assessed using an in vitro method as described previously ([Kong et al., 2013]). Briefly, GCM was spiked into different pH (1.2, 6.8, and 7.4) buffers and gastrointestinal content solutions containing the GCM at a final concentration of 0.8 μg/mL. The solutions were then mixed and incubated at 37°C. Aliquots of 200 μL samples were collected at 0.5, 1, 2, and 4 h, and 200 μL ice-cold methanol containing 200 ng/mL IS was added to stop the incubation. After centrifugation, 10 μL of the supernatant was used for analysis. Each experiment was performed in triplicate.

CYP2B6 = test system: CYP2B6; set-up: method as in Li et al., 2017; Kuang et al., 2021; details: human liver microsomes; ref Li et al., 2017; Kuang et al., 2021; cited from earlier work
[8] = male, Sprague-Dawley, iv, free GCM, i.v. 10 mg/kg, rat plasma

SMILES: COc1c(CC=C(C)C)c(O)cc2oc(=O)c3c4ccc(O)cc4oc3c12 [Glycyrol]
CYP1A1 inhibition (CYP1A1): competitive inhibitory effects | CYP2C9 inhibition (CYP2C9; ref Kim et al., 2016): competitive inhibitory effects | Absorption into the blood after oral administration [1]: not absorbed into the blood

Blood-brain barrier crossing [2]: cannot cross the blood-brain barrier | GCM in brain samples [2]: not detected | GCM levels in most tissues by 6 h after dosing ([2]; 6 h): undetectable levels | dose excreted ([3]; 0–12 h, read-out: Urine recovery): 0.28 ± 0.25% | dose excreted ([3]; 0–24 h, read-out: Urinary recovery over 24 h): 0.39% | dose excreted ([3]; 12–24 h, read-out: Urine recovery): 0.11 ± 0.1% | dose excreted ([5]; 0–2 h): 0.2 ± 0.12% | dose excreted ([5]; 2–4 h): 0.08 ± 0.06% | dose excreted ([5]; 4–6 h): 0.05 ± 0.04% | Parent form excreted from bile over 0–8 h ([5]; 0–8 h): < 1 % of the delivered dose | Parent GCM in plasma collected after 6 h ([6]; free GCM, i.v. 10 mg/kg): almost undetectable | CL/F ([6]; free GCM, i.v. 10 mg/kg, rats): 149 ± 33.3 mL/min/kg | Vd, λz/F ([6]; free GCM, i.v. 10 mg/kg, rats, in L/kg): 9.25 ± 3.13 | Free GCM in plasma after 2 h ([6]; free GCM, oral 20 mg/kg): almost undetectable | AUC0-∞ of conjugated (glucuronidated) GCM relative to free GCM ([6]; i.v. 10 mg/kg, rat plasma): approximately four-times higher | AUC(0-inf) [6, 8]: 1170 ± 283 ng·h/mL | AUC(0-t) [6, 8]: 1160 ± 284 ng·h/mL | C0 [6, 8]: 5690 ± 1360 ng/mL | half-life ([6]; male, Sprague-Dawley, iv, free GCM, i.v. 10 mg/kg, rat plasma, read-out: t1/2, λz (converted)): 42.6 ± 6.6 min | Stability in colon content solutions [7]: unstable | Stability in small intestine content solutions [7]: unstable | Stability in stomach content solutions [7]: relatively stable | Stability in pH buffer solutions ([7]; pH 1.2, 6.8 and 7.4): relatively stable
SMILES: COc1c(CC=C(C)C)c(O)cc2oc(=O)c(-c3ccc(O)cc3O)cc12 [GCM, Glycycoumarin]
CYP2D6 activity inhibition (CYP2D6): significantly inhibits | Tissue concentration rank order [2]: liver, followed by that in the spleen, lung, heart, and kidney | CYP2C8 inhibition (CYP2C8): strongly inhibit | UGT1A19 inhibition [4]: strongly inhibit | CYP1A2 inhibition (CYP1A2): strongly inhibit | CYP2C9 inhibition (CYP2C9; ref Li et al., 2017, Kuang et al., 2021): strongly inhibit | CYP2C19 inhibition (CYP2C19): strongly inhibit | CYP2B6 inhibition (CYP2B6): strongly inhibit
